EC50 data for 15 molecules are collected here from PubChem BioAssay AID1607 (NINDS Approved Drug Screening Program, 2009).

Records with an inconclusive call do not appear.

The subject of this assay is cells expressing AR112-GFP, GFP fluorescence. The experiment in a line: enhancers of polyQ-expanded androgen receptor AR112-GFP degradation, cell-based, GFP fluorescence (AID 1607).

In general, EC50 refers to the concentration needed to bring the measured effect to its halfway point. Take `CN1CCN(CCC=C2c3ccccc3Sc3ccc(S(=O)(=O)N(C)C)cc32)CC1`: the EC50 is 3.12 µM.

As to `COc1ccc2cc3[n+](cc2c1OC)CCc1cc2c(cc1-3)OCO2`, the EC50 was 3.12 µM.

In the case of `CNCCCN1c2ccccc2CCc2ccccc21`, the EC50 is 3.12 µM.

As to `CN(C)CCC=C1c2ccccc2C=Cc2ccccc21`, the EC50 is 3.12 µM.

In the case of `NCCc1cc(O)c(O)cc1O`, the EC50 was 3.12 µM.

Consider `CC(CN(C)C)CN1c2ccccc2Sc2ccccc21` (stereo not given), for which the EC50 was 3.75 µM.

As for `CC(CN(C)C)CN1c2ccccc2CCc2ccccc21` (stereo not given), the EC50 was 3.75 µM.

`CCC(C)[C@H]1O[C@]2(C=C[C@@H]1C)C[C@@H]1C[C@@H](C/C=C(\C)[C@@H](OC3C[C@H](OC)C(O[C@H]4C[C@H](OC)[C@@H](O)[C@H](C)O4)[C@H](C)O3)[C@@H](C)/C=C/C=C3\CO[C@@H]4[C@H](O)C(C)=C[C@@H](C(=O)O1)[C@]34O)O2` (stereo not given in full): the EC50 was 3.75 µM.

On to `CCc1nc(N)nc(N)c1-c1ccc(Cl)cc1`, for which the EC50 was 3.75 µM.

For `CN(C)C(=O)C(CCN1CCC(O)(c2ccc(Cl)cc2)CC1)(c1ccccc1)c1ccccc1`, the EC50 was 3.75 µM.

Turning to `COC(=O)[C@H]1[C@H]2C[C@@H]3c4[nH]c5cc(OC)ccc5c4CCN3C[C@H]2C[C@@H](OC(=O)c2cc(OC)c(OC)c(OC)c2)[C@@H]1OC`, the EC50 is 3.75 µM.

Turning to `CN1CCC[C@@H]1CCO[C@](C)(c1ccccc1)c1ccc(Cl)cc1`, the EC50 was 3.12 µM.

`Fc1ccc(C(c2ccc(F)cc2)N2CCN(C/C=C/c3ccccc3)CC2)cc1`: the EC50 is 3.75 µM.

`O=c1cc(-c2ccccc2)oc2c(O)c(O)ccc12`: the EC50 was 2.5 µM.

Regarding `Clc1ccc(C(OCCN2CCCCC2)c2ccccc2)cc1` (stereo not given), the EC50 was 3.75 µM.
